Species: Rattus norvegicus
Experiment: Open TG-GATES - Regimen: Daily Repeat
Type: toxicity, organism-based, Sprague-Dawley
Design: regimen Daily Repeat, gender Male, age 6 weeks
Settings: in vivo, po, 20 mg/kg, route gavage, dose level Middle; for APTT / Bas / Eos / Fbg / Hb / Ht / Lym / MCH / MCHC / MCV / Mono / Neu / PT / Plat / RBC / Ret / WBC: tissue Blood; for KIDNEY_TOTAL: tissue Kidney; for LIVER: tissue Liver; for A/G / ALP / ALT / AST / BUN / CRE / Ca / Cl / DBIL / GLC / IP / K / LDH / Na / PL / RALB / TBIL / TC / TG / TP / gamma-GTP: tissue Plasma

SMILES: CN(CCOc1ccc(CC2SC(=O)NC2=O)cc1)c1ccccn1.O=C(O)/C=C\C(=O)O (centres undefined) [ROSIGLITAZONE MALEATE]
- TERMINAL_BW (72 h, time 3 day): 255.1 g
- APTT (72 h, time 3 day): 16.4 s
- Bas (72 h, time 3 day): 0%
- Eos (72 h, time 3 day): 0.8%
- Fbg (72 h, time 3 day): 231.2 mg/dL
- Hb (72 h, time 3 day): 12.7 g/dL
- Ht (72 h, time 3 day): 38.6%
- Lym (72 h, time 3 day): 75.2%
- MCH (72 h, time 3 day): 21 pg
- MCHC (72 h, time 3 day): 32.8%
- MCV (72 h, time 3 day): 64 fL
- Mono (72 h, time 3 day): 8%
- Neu (72 h, time 3 day): 16.6%
- PT (72 h, time 3 day): 11.7 s
- Plat (72 h, time 3 day): 136.2 x10_4/uL
- RBC (72 h, time 3 day): 603.2 x10_4/ul
- Ret (72 h, time 3 day): 7%
- WBC (72 h, time 3 day): 83.2 x10_2/uL
- KIDNEY_TOTAL (72 h, time 3 day): 0.7 g
- LIVER (72 h, time 3 day): 12.7 g
- A/G (72 h, time 3 day): 2.3
- ALP (72 h, time 3 day): 1378.6 IU/L
- ALT (72 h, time 3 day): 38.8 IU/L
- AST (72 h, time 3 day): 67.8 IU/L
- BUN (72 h, time 3 day): 16.4 mg/dL
- CRE (72 h, time 3 day): 0.2 mg/dL
- Ca (72 h, time 3 day): 11.7 mg/dL
- Cl (72 h, time 3 day): 103.6 meq/L
- DBIL (72 h, time 3 day): 0.012 mg/dL
- GLC (72 h, time 3 day): 187.4 mg/dL
- IP (72 h, time 3 day): 7.6 mg/dL
- K (72 h, time 3 day): 4.3 meq/L
- LDH (72 h, time 3 day): 93.4 IU/L
- Na (72 h, time 3 day): 140 meq/L
- PL (72 h, time 3 day): 147.4 mg/dL
- RALB (72 h, time 3 day): 3.9 g/dL
- TBIL (72 h, time 3 day): 0.04 mg/dL
- TC (72 h, time 3 day): 80.4 mg/dL
- TG (72 h, time 3 day): 79.6 mg/dL
- TP (72 h, time 3 day): 5.6 g/dL
- gamma-GTP (72 h, time 3 day): 0 IU/L
- TERMINAL_BW ([…], time 7 day): 281.6 g
- TERMINAL_BW ([…], time 14 day): 355.9 g
- TERMINAL_BW ([…], time 28 day): 432 g
- APTT ([…], time 7 day): 15.7 s
- Bas ([…], time 7 day): 0%
- Eos ([…], time 7 day): 0.8%
- Fbg ([…], time 7 day): 225.6 mg/dL
- Hb ([…], time 7 day): 12.6 g/dL
- Ht ([…], time 7 day): 38.6%
- Lym ([…], time 7 day): 76%
- MCH ([…], time 7 day): 20.7 pg
- MCHC ([…], time 7 day): 32.5%
- MCV ([…], time 7 day): 63.5 fL
- Mono ([…], time 7 day): 6%
- Neu ([…], time 7 day): 17.4%
- PT ([…], time 7 day): 11.9 s
- Plat ([…], time 7 day): 123 x10_4/uL
- RBC ([…], time 7 day): 608.4 x10_4/ul
- Ret ([…], time 7 day): 6.5%
- WBC ([…], time 7 day): 87.6 x10_2/uL
- APTT ([…], time 14 day): 15.9 s
- Bas ([…], time 14 day): 0%
- Eos ([…], time 14 day): 0.8%
- Fbg ([…], time 14 day): 240.4 mg/dL
- Hb ([…], time 14 day): 13 g/dL
- Ht ([…], time 14 day): 39.7%
- Lym ([…], time 14 day): 79.8%
- MCH ([…], time 14 day): 20.7 pg
- MCHC ([…], time 14 day): 32.8%
- MCV ([…], time 14 day): 63 fL
- Mono ([…], time 14 day): 6%
- Neu ([…], time 14 day): 13.6%
- PT ([…], time 14 day): 11.6 s
- Plat ([…], time 14 day): 110.8 x10_4/uL
- RBC ([…], time 14 day): 631.8 x10_4/ul
- Ret ([…], time 14 day): 3.7%
- WBC ([…], time 14 day): 108.6 x10_2/uL
- APTT ([…], time 28 day): 15.9 s
- Bas ([…], time 28 day): 0%
- Eos ([…], time 28 day): 1%
- Fbg ([…], time 28 day): 252.2 mg/dL
- Hb ([…], time 28 day): 13.9 g/dL
- Ht ([…], time 28 day): 42.4%
- Lym ([…], time 28 day): 81.8%
- MCH ([…], time 28 day): 19.2 pg
- MCHC ([…], time 28 day): 32.8%
- MCV ([…], time 28 day): 58.6 fL
- Mono ([…], time 28 day): 6%
- Neu ([…], time 28 day): 11%
- PT ([…], time 28 day): 11.9 s
- Plat ([…], time 28 day): 110 x10_4/uL
- RBC ([…], time 28 day): 725 x10_4/ul
- Ret ([…], time 28 day): 2.6%
- WBC ([…], time 28 day): 105 x10_2/uL
- KIDNEY_TOTAL ([…], time 7 day): 0.8 g
- KIDNEY_TOTAL ([…], time 14 day): 0.8 g
- KIDNEY_TOTAL ([…], time 28 day): 0.8 g
- LIVER ([…], time 7 day): 13.5 g
- LIVER ([…], time 14 day): 16.1 g
- LIVER ([…], time 28 day): 16.8 g
- A/G ([…], time 7 day): 2.1
- ALP ([…], time 7 day): 1428.6 IU/L
- ALT ([…], time 7 day): 36.2 IU/L
- AST ([…], time 7 day): 67.6 IU/L
- BUN ([…], time 7 day): 18.8 mg/dL
- CRE ([…], time 7 day): 0.4 mg/dL
- Ca ([…], time 7 day): 11.3 mg/dL
- Cl ([…], time 7 day): 104.8 meq/L
- DBIL ([…], time 7 day): 0.01 mg/dL
- GLC ([…], time 7 day): 171.2 mg/dL
- IP ([…], time 7 day): 7.8 mg/dL
- K ([…], time 7 day): 4.3 meq/L
- LDH ([…], time 7 day): 92 IU/L
- Na ([…], time 7 day): 141.2 meq/L
- PL ([…], time 7 day): 134.8 mg/dL
- RALB ([…], time 7 day): 3.8 g/dL
- TBIL ([…], time 7 day): 0.032 mg/dL
- TC ([…], time 7 day): 71.8 mg/dL
- TG ([…], time 7 day): 55.2 mg/dL
- TP ([…], time 7 day): 5.7 g/dL
- gamma-GTP ([…], time 7 day): 0.4 IU/L
- A/G ([…], time 14 day): 2
- ALP ([…], time 14 day): 1500.8 IU/L
- ALT ([…], time 14 day): 35.2 IU/L
- AST ([…], time 14 day): 64.2 IU/L
- BUN ([…], time 14 day): 19 mg/dL
- CRE ([…], time 14 day): 0.4 mg/dL
- Ca ([…], time 14 day): 11.1 mg/dL
- Cl ([…], time 14 day): 106.4 meq/L
- DBIL ([…], time 14 day): 0.01 mg/dL
- GLC ([…], time 14 day): 188 mg/dL
- IP ([…], time 14 day): 7.3 mg/dL
- K ([…], time 14 day): 4.2 meq/L
- LDH ([…], time 14 day): 63 IU/L
- Na ([…], time 14 day): 143.8 meq/L
- PL ([…], time 14 day): 134.4 mg/dL
- RALB ([…], time 14 day): 3.8 g/dL
- TBIL ([…], time 14 day): 0.032 mg/dL
- TC ([…], time 14 day): 73.8 mg/dL
- TG ([…], time 14 day): 69.4 mg/dL
- TP ([…], time 14 day): 5.6 g/dL
- gamma-GTP ([…], time 14 day): 1 IU/L
- A/G ([…], time 28 day): 1.8
- ALP ([…], time 28 day): 1013.6 IU/L
- ALT ([…], time 28 day): 34 IU/L
- AST ([…], time 28 day): 61.2 IU/L
- BUN ([…], time 28 day): 17.8 mg/dL
- CRE ([…], time 28 day): 0.4 mg/dL
- Ca ([…], time 28 day): 10.6 mg/dL
- Cl ([…], time 28 day): 105.8 meq/L
- DBIL ([…], time 28 day): 0.01 mg/dL
- GLC ([…], time 28 day): 180.4 mg/dL
- IP ([…], time 28 day): 6.5 mg/dL
- K ([…], time 28 day): 4.2 meq/L
- LDH ([…], time 28 day): 87.2 IU/L
- Na ([…], time 28 day): 140.8 meq/L
- PL ([…], time 28 day): 122.8 mg/dL
- RALB ([…], time 28 day): 3.7 g/dL
- TBIL ([…], time 28 day): 0.032 mg/dL
- TC ([…], time 28 day): 64.6 mg/dL
- TG ([…], time 28 day): 65.2 mg/dL
- TP ([…], time 28 day): 5.8 g/dL
- gamma-GTP ([…], time 28 day): 0.4 IU/L
